In patent US20150196520A1, “METHOD AND PHARMACEUTICAL COMPOSITION FOR TREATING DERMATOPHYTOSIS” (priority 2012, published 2015):
Read-outs that look alike come from different tables or passages of the source.

How the values were obtained:
[1] = tested on: T. mentagrophytes IFM 59813; test: CLSI broth microdilution drug-sensitivity test; assay type: cell-based, Trichophyton mentagrophytes
Description: (§1) The antimicrobial activity of the pharmaceutical composition for dermatomycosis according to the present invention was evaluated through drug-susceptibility tests against major pathogenic fungi performed in compliance with the guidelines of the Clinical Laboratory Standards Institute (CLSI), USA. The pathogenic fungi selected were genus Tricophyton (T. rubrum, T. mentagrophytes, T. tonsurans), genus Microsporum (M. gypseum), genus Epidermophyton (E. floccosum), genus Candida (C. albicans), genus Aspergillus (A. fumigatus), and genus Cryptococcus (C. neoformans). […] In the drug-susceptibility tests, Mg ions and Ca ions necessary for conidia (spores) of the fungus to germinate growth were included in the nutrient medium.
(§2) The antifungal activity of the compounds of the present invention was evaluated by performing drug-sensitivity tests against various pathogenic fungi. The testing method was a broth microdilution method in conformance with the guidelines of the Clinical Laboratory Standards Institute (CLSI), USA.

[2] = JECFA evaluation of food additives; cited from earlier work
tinea corporis = test: Topical treatment of tinea corporis, case reports; assay type: in vivo, humans; settings: for healing of tinea corporis: Example 10: 0.01% test solutions
From the text: (§3) The compounds of the present invention were investigated with respect to the treatment of dermatomycosis affecting humans. […] The cases of tinea used in the investigation involved selection of various types of tinea such as vesicular-type tinea, interdigital-type tinea, hyperkeratotic tinea, tinea corporis, tinea unguium, etc.
(§4) The dermatophytes that cause dermatophytosis, a typical form of dermatomycosis, are mainly Trichophyton rubrum and Trichophyton mentagrophytes. […] This confirmation of dermatophytes involved planting a sample of skin or nail of an area affected with tinea in a Candida nutrient medium (Nissui Pharmaceutical Co., Ltd.), isolating the dermatophytes that grow, and then confirming the dermatophytes through gene analysis or observation of morphology. A more detailed description of the fungus identification is provided in the examples.
A 1% test solution of ethylenediaminetetraacetic acid trisodium salt prepared in the same manner as Example 6 was applied by spraying once a day onto an area, approximately 5 cm wide and 3 cm long, of a chest affected by tinea corporis, which was denoted by flaring redness.
To 119 mg of ethylenediaminetetraacetic acid tetrasodium salt tetrahydrate was added 20% ethanol to prepare 1 L of 0.01% test solution. This test solution was applied by spraying, three times a day, to tinea corporis denoted by red flaring ridges that had occurred on the thigh.

tinea unguium = test: Treatment of tinea unguium, case reports; assay type: in vivo, humans
M. furfur = test: Malassezia drug sensitivity test (Sugita et al., mLNA medium); assay type: cell-based
Description: as §1
(§5) The antifungal activity of the compounds of the present invention against Malassezia spp. was evaluated in drug sensitivity tests against human-related genus Malassezia species, performed in compliance with the methodology of Sugita et al. (2005). The test drug and mLNA nutrient medium were added to the wells of a 24-well microtiter plate with a total quantity of 2 mL. A 50 μL microbe suspension with a concentration of approximately 1×10^4 cell/mL was added to the medium, which was cultured aerobically for 7 days at 32° C. In comparison to the control (no test drug), the density required to completely prevent growth was set as the minimum inhibitory concentration (MIC).

E. floccosum IFM 53345 = test: CLSI broth microdilution drug-sensitivity test; assay type: cell-based, Epidermophyton floccosum
Description: as §1, §2

A. fumigatus IFM4942 = test: CLSI broth microdilution drug-sensitivity test; assay type: cell-based
Description: as §1, §2

C. albicans IFM 5740 = test: CLSI broth microdilution drug-sensitivity test; assay type: cell-based
Description: as §1, §2

M. gypseum IFM 59816 = test: CLSI broth microdilution drug-sensitivity test; assay type: cell-based
Description: as §1, §2

C. neoformans IFM5807 = test: CLSI broth microdilution drug-sensitivity test; assay type: cell-based
Description: as §1, §2

hyperkeratotic tinea = test: Topical treatment of hyperkeratotic tinea, case reports; assay type: in vivo, humans
From the text: as §3, §4

tinea glabrosa = test: Topical treatment of tinea glabrosa, case reports; assay type: in vivo, humans
Description: Dermatomycosis includes dermatophytosis, cutaneous candidiasis, and malasseziosis. As time progresses with these diseases, a variety of fungi will parasitize the site.
To 2.4 g of calcium benzoate trihydrate was added water to prepare 200 g of a 1% test solution. This solution was atomized twice a day for tinea glabrosa denoted by redness on the abdominal region.
This red papule was treated twice a day with a 2% solution of ethylenediaminetetraacetic acid trisodium salt prepared in the same manner as in Example 5.

Malassezia infection = settings: Example 14: 1% test solution applied twice a day, lower-left abdomen
M. globosa = test: microbe, parasite or virus in culture; settings: Malassezia globosa, 168 h
Description: as §1
The antifungal activity of the compounds of the present invention against Malassezia spp. was evaluated in drug sensitivity tests against human-related genus Malassezia species, performed in compliance with the methodology of Sugita et al. (2005). The test drug and mLNA nutrient medium were added to the wells of a 24-well microtiter plate with a total quantity of 2 mL. A 50 μL microbe suspension with a concentration of approximately 1×10^4 cell/mL was added to the medium, which was cultured aerobically for 7 days at 32° C. […]

M. japonica = test: organism not typed; settings: 168 h
Description: as §1, §5

M. sympodialis = test: organism not typed; settings: 168 h
Description: as §1, §5

M. slooffiae = test: organism not typed; settings: 168 h
Description: as §1, §5

M. restricta = test: organism not typed; settings: 168 h
Description: as §1, §5

M. dermatitis = test: organism not typed; settings: 168 h
Description: as §1, §5

M. obtusa = test: organism not typed; settings: 168 h
Description: as §1, §5

M. yamatoensis = test: organism not typed; settings: 168 h
Description: as §1, §5

T. rubrum IFM 59814 = test: CLSI broth microdilution drug-sensitivity test; assay type: cell-based, Trichophyton rubrum
Description: as §1, §2

[3] = T. mentagrophytes IFM 59813, broth microdilution
[4] = Trichophyton mentagrophytes, IFM59813
[5] = Epidermophyton floccosum, IFM53345
[6] = Cryptococcus neoformans, IFM5807

From the text for small red papules: Dermatophyte was isolated from the papules in this case, and was confirmed through gene analysis to be Trichophyton mentagrophytes.

O=C([O-])c1ccccc1.[K+] [potassium benzoate]
MIC [1, 3]: 780 µg/mL

O=C([O-])CN(CCN(CC(=O)O)CC(=O)O)CC(=O)[O-].[Na+].[Na+] [ethylenediaminetetraacetic acid disodium salt]
MIC [1, 4]: 78 µg/mL
permissible daily intake [2]: ≤ 2.5 mg per 1 kg of body weight
healing of tinea corporis (tinea corporis): heal tinea corporis

CCC(C)n1ncn(-c2ccc(N3CCN(c4ccc(OCC5COC(Cn6cncn6)(c6ccc(Cl)cc6Cl)O5)cc4)CC3)cc2)c1=O (stereo not shown) [Itrizole, reference compound]
outcome of oral therapy of tinea unguium (tinea unguium; Example 16: oral therapy, left-foot big-toe toenail): ineffective

O=C([O-])CN(CCN(CC(=O)[O-])CC(=O)O)CC(=O)[O-].[K+].[K+].[K+] [ethylenediaminetetraacetic acid tripotassium salt]
MIC [1, 4]: 78 µg/mL

O=C([O-])CN(CCN(CC(=O)[O-])CC(=O)O)CC(=O)[O-].[Na+].[Na+].[Na+] [ethylenediaminetetraacetic acid trisodium salt]
MIC (M. furfur; Malassezia furfur, 168 h): 63 µg/mL
MIC [1, 4]: 78 µg/mL
MIC (E. floccosum IFM 53345; [5]): 78 µg/mL
MIC (A. fumigatus IFM4942; Aspergillus fumigatus, IFM4942): 9.8 µg/mL
MIC (C. albicans IFM 5740; Candida albicans, IFM5740): 0.2 µg/mL
MIC (M. gypseum IFM 59816; Nannizzia gypsea, IFM59816): 78 µg/mL
MIC (C. neoformans IFM5807; [6]): 9.8 µg/mL
time until hyperkeratotic-type tinea eliminated and clean skin recovered (hyperkeratotic tinea; Example 5: 2% test solution (glycerin, 15% ethanol), sprayed twice daily, sole of foot, T. mentagrophytes and Candida isolated): approximately 2 months
time until tinea eliminated and healthy skin returned (hyperkeratotic tinea; Example 6: 1% test solution, foot immersed 1 hour a day): about one and a half
time until infected area entirely replaced by healthy skin (hyperkeratotic tinea; Example 17: 2% test solution sprayed twice a day, base of toes to arch, Trichophyton rubrum): approximately 6 months
time until complete recovery of healthy skin (hyperkeratotic tinea; Example 21: 5% test solution sprayed twice a day, left and right heels, Trichophyton rubrum): 3 months
time until healthy skin and nail recovered (tinea unguium; Example 12: 2% test solution, little finger soaked in fingerstall at bedtime, T. mentagrophytes and Candida): 2 months
outcome of tinea unguium treatment (tinea unguium; Example 16: 2% test solution sprayed twice a day, big-toe toenail refractory to oral Itrizole): curing the tinea
time until tinea unguium cured (tinea unguium; Example 20: 3% test solution sprayed twice a day, little-toe toenail, Trichophyton rubrum): approximately 8 months
time until healthy nail recovered (tinea unguium; Example 22: 10% test solution in water applied once a day, right thumb nail, Trichophyton rubrum): about one
time until healthy nail restored (tinea unguium; Example 23: 20% test solution (glycerin, water) applied twice a day, right thumbnail, Trichophyton rubrum): about 1 year
time until red flaring disappeared and healthy skin returned (tinea corporis; Example 8: 1% test solution sprayed once a day, chest, Trichophyton mentagrophytes): approximately 2 weeks
time until skin symptoms disappeared or cicatrized (tinea corporis healed) (tinea corporis; Example 9: 1% test solution sprayed once a day, left thigh, considered M. canis): approximately one
healing of tinea corporis (tinea corporis): heal tinea corporis
time until red papules cured completely (tinea glabrosa; Example 23: 2% solution once or twice a day, thigh, abdomen, breast or back, Aspergillus tubingensis, Basidiomycete and other fungi): 1-2 weeks
time until complete cure of red papule (tinea glabrosa; Example 23: 2% solution twice a day, back of head, Aspergillus japonicus): two
time until papules disappeared, completely healed (small red papules; Example 18: 2% test solution sprayed twice a day, scalp at back of head): 2 weeks
time until papules disappeared, completely healed (small red papules; Example 19: 2% test solution sprayed twice a day, back of right thigh, Trichophyton mentagrophytes): 10 days
time until light-brown area disappeared (Malassezia infection): approximately 3 weeks
MIC (M. globosa): 63 µg/mL
MIC (M. japonica): 63 µg/mL
MIC (M. sympodialis): 63 µg/mL
MIC (M. slooffiae): 63 µg/mL
MIC (M. restricta): 31 µg/mL
MIC (M. dermatitis): 31 µg/mL
MIC (M. obtusa): 31 µg/mL
MIC (M. yamatoensis): 63 µg/mL
MIC (T. rubrum IFM 59814; Trichophyton rubrum, IFM59814): 39 µg/mL

C/C=C/C=C/C(=O)[O-].[K+] [potassium sorbate]
MIC (M. furfur; Malassezia furfur, 168 h): 310 µg/mL
MIC [1, 4]: 390 µg/mL
MIC (E. floccosum IFM 53345; [5]): 200 µg/mL
MIC (A. fumigatus IFM4942; Aspergillus fumigatus, IFM4942): 780 µg/mL
MIC (C. albicans IFM 5740; Candida albicans, IFM5740): 3100 µg/mL
MIC (M. gypseum IFM 59816; Nannizzia gypsea, IFM59816): 780 µg/mL
MIC (C. neoformans IFM5807; [6]): 200 µg/mL
time until healthy nail regained (tinea unguium; Example 13: 1% test solution (1% glycerin, 15% ethanol), big-toe toenail immersed 1 hour a day): about 9 months
healing of tinea corporis (tinea corporis): heal tinea corporis
MIC (T. rubrum IFM 59814; Trichophyton rubrum, IFM59814): 780 µg/mL

O=C([O-])c1ccccc1.O=C([O-])c1ccccc1.[Ca+2] [calcium benzoate]
curative effect against tinea of the skin (tinea glabrosa; 1% aqueous solution (Example 15)): showed a curative effect
time until skin symptoms disappeared (tinea eliminated) (tinea glabrosa; Example 15: 1% test solution in water atomized twice a day, abdominal region): about two

O=C([O-])c1ccccc1.O=C([O-])c1ccccc1.[Mg+2] [magnesium benzoate]
MIC [1, 3]: 780 µg/mL

O=C([O-])CN(CCN(CC(=O)[O-])CC(=O)[O-])CC(=O)[O-].[Mg+2].[Na+].[Na+] [ethylenediaminetetraacetic acid magnesium disodium salt]
MIC [1, 4]: 78 µg/mL

C/C=C/C=C/C(=O)[O-].[Na+] [sodium sorbate]
MIC ([1]; Trichophyton mentagrophytes, IFM59813, T. mentagrophytes IFM 59813, broth microdilution, read-out: MIC): 780 µg/mL

O=C([O-])c1ccccc1.[Na+] [sodium benzoate]
MIC (M. furfur; M. furfur, 7 days at 32° C., complete prevention of growth): 310 µg/mL
MIC [1, 3]: 200 µg/mL
MIC (E. floccosum IFM 53345; E. floccosum IFM 53345, broth microdilution): 200 µg/mL
MIC (A. fumigatus IFM4942; A. fumigatus IFM4942, broth microdilution): 3100 µg/mL
MIC (C. albicans IFM 5740; C. albicans IFM 5740, broth microdilution): 6300 µg/mL
MIC (M. gypseum IFM 59816; M. gypseum IFM 59816, broth microdilution): 1600 µg/mL
MIC (C. neoformans IFM5807; C. neoformans IFM5807, broth microdilution): 1600 µg/mL
time until healthy nail restored (tinea unguium; Example 13: 1% test solution in 20% ethanol, thumb nail soaked in fingerstall one day, 10 times): about 3 months
healing of tinea corporis (tinea corporis): heal tinea corporis
MIC (T. rubrum IFM 59814; T. rubrum IFM 59814, broth microdilution): 390 µg/mL
